Test results as given in patent US10954228B2 (NATIONAL INSTITUTES OF HEALTH, UNITED STATES DEPARTMENT OF …, priority 2016, dated 2021).

Biological target: Human LDHA (Homo sapiens (Human), UniProt P00338)
Assay: human LDHA primary biochemical assay
Conditions: biochemical LDHA inhibitory activity, assay of Example 1; activity level classes defined in nM
Source text: This example describes a human LDHA primary biochemical assay employed in the characterization of a compound of formula (I) in an embodiment of the invention.
Test compounds were placed in a Greiner Bio-One (Monroe, N.C.) 1536-well black solid bottom assay plate. 200 millimolar (mM) Tris HCl, pH 7.4, 100 micromolar (μM) EDTA and 0.01% TWEEN-20™, final concentration, was used as the assay buffer. The LDHA reagent was 2 nanomolar (nM) Human LDHA (Meridian Life Science, Inc., Memphis, Tenn.), final concentration, in assay buffer. The substrate reagent was 0.06 mM NADH and 0.2 mM sodium pyruvate, final concentration, in assay buffer. The resazurin/diaphorase coupling reagent was 0.037 mM resazurin and 0.133 milligrams per milliliter (mg/mL) diaphorase, final concentration, in assay buffer. The inhibition of LDHA activity was measured by fluorescence emission.

| IC50 | SMILES |
| --- | --- |
| < 100 nM | Cc1cnc(-c2cccc(-c3nn(-c4nc(C(=O)O)cs4)c(CC4CC4)c3Cc3ccc(S(N)(=O)=O)c(F)c3)c2)nc1 [Compound 217] |
| < 100 nM | NS(=O)(=O)c1ccc(Cc2c(-c3cccc(-c4ccc(C(F)(F)F)cc4)c3)nn(-c3nc(C(=O)O)cs3)c2CC2CC2)cc1F [Compound 219, 2-(5-(cyclopropylmethyl)-4-(3-fluoro-4-sulfamoylbenzyl)-3-(4′-(trifluoromethyl)-[1,1′-biphenyl]-3-yl)-1H-pyrazol-1-yl)thiazole-4-carboxylic acid] |
| < 100 nM | NS(=O)(=O)c1ccc(Cc2c(-c3cccc(-c4ccc5c(c4)CCC5)c3)nn(-c3nc(C(=O)O)cs3)c2CC2CC2)cc1F [Compound 220, 2-(5-(cyclopropylmethyl)-3-(3-(2,3-dihydro-1H-inden-5-yl)phenyl)-4-(3-fluoro-4-sulfamoylbenzyl)-1H-pyrazol-1-yl)thiazole-4-carboxylic acid] |
| 100 to 1000 nM | NS(=O)(=O)c1ccc(Cc2c(-c3cccc(-c4ccc(C5CC5)cc4)c3)nn(-c3nc(C(=O)O)cs3)c2CC2CC2)cc1F [Compound 222, 2-(3-(4′-cyclopropyl-[1,1′-biphenyl]-3-yl)-5-(cyclopropylmethyl)-4-(3-fluoro-4-sulfamoylbenzyl)-1H-pyrazol-1-yl)thiazole-4-carboxylic acid] |
| 100 to 1000 nM | CCc1cc(-c2cc(-c3nn(-c4nc(C(=O)O)cs4)c(CC4CC4)c3Cc3ccc(S(N)(=O)=O)c(F)c3)ccc2F)ccc1OC [Compound 223, 2-(5-(cyclopropylmethyl)-3-(3′-ethyl-6-fluoro-4′-methoxy-[1,1′-biphenyl]-3-yl)-4-(3-fluoro-4-sulfamoylbenzyl)-1H-pyrazol-1-yl)thiazole-4-carboxylic acid] |
| 100 to 1000 nM | NS(=O)(=O)c1ccc(Cc2c(-c3cccc(-c4ccc(C(F)(F)C(F)(F)F)cc4)c3)nn(-c3nc(C(=O)O)cs3)c2CC2CC2)cc1F [Compound 224, 2-(5-(cyclopropylmethyl)-4-(3-fluoro-4-sulfamoylbenzyl)-3-(4′-(perfluoroethyl)-[1,1′-biphenyl]-3-yl)-1H-pyrazol-1-yl)thiazole-4-carboxylic acid] |
| 100 to 1000 nM | NS(=O)(=O)c1ccc(Cc2c(-c3ccc(F)c(-c4ccc(C(F)(F)C(F)(F)F)cc4)c3)nn(-c3nc(C(=O)O)cs3)c2CC2CC2)cc1F [Compound 225, 2-(5-(cyclopropylmethyl)-3-(6-fluoro-4′-(perfluoroethyl)-[1,1′-biphenyl]-3-yl)-4-(3-fluoro-4-sulfamoylbenzyl)-1H-pyrazol-1-yl)thiazole-4-carboxylic acid] |
| 100 to 1000 nM | CC(C)Cc1ccc(-c2cccc(-c3nn(-c4nc(C(=O)O)cs4)c(CC4CC4)c3Cc3ccc(S(N)(=O)=O)c(F)c3)c2)cc1 [Compound 226, 2-(5-(cyclopropylmethyl)-4-(3-fluoro-4-sulfamoylbenzyl)-3-(4′-isobutyl-[1,1′-biphenyl]-3-yl)-1H-pyrazol-1-yl)thiazole-4-carboxylic acid] |
| 100 to 1000 nM | CC(C)Cc1ccc(-c2cc(-c3nn(-c4nc(C(=O)O)cs4)c(CC4CC4)c3Cc3ccc(S(N)(=O)=O)c(F)c3)ccc2F)cc1 [Compound 227, 2-(5-(cyclopropylmethyl)-3-(6-fluoro-4′-isobutyl-[1,1′-biphenyl]-3-yl)-4-(3-fluoro-4-sulfamoylbenzyl)-1H-pyrazol-1-yl)thiazole-4-carboxylic acid] |
| < 100 nM | Cc1cc(-c2cccc(-c3nn(-c4nc(C(=O)O)cs4)c(CC4CC4)c3Cc3ccc(S(N)(=O)=O)c(F)c3)c2)ccc1O [Compound 228, 2-(5-(cyclopropylmethyl)-4-(3-fluoro-4-sulfamoylbenzyl)-3-(4′-hydroxy-3′-methyl-[1,1′-biphenyl]-3-yl)-1H-pyrazol-1-yl)thiazole-4-carboxylic acid] |
| < 100 nM | NS(=O)(=O)c1ccc(Cc2c(-c3cccc(-c4ccc(O)c(F)c4)c3)nn(-c3nc(C(=O)O)cs3)c2CC2CC2)cc1F [Compound 229, 2-(5-(cyclopropylmethyl)-3-(3′-fluoro-4′-hydroxy-[1,1′-biphenyl]-3-yl)-4-(3-fluoro-4-sulfamoylbenzyl)-1H-pyrazol-1-yl)thiazole-4-carboxylic acid] |
| 100 to 1000 nM | CC(C)c1ccc(-c2cccc(-c3nn(-c4nc(C(=O)O)cs4)c(CC4CC4)c3Cc3ccc(S(N)(=O)=O)c(F)c3)c2)cc1F [Compound 230, 2-(5-(cyclopropylmethyl)-3-(3′-fluoro-4′-isopropyl-[1,1′-biphenyl]-3-yl)-4-(3-fluoro-4-sulfamoylbenzyl)-1H-pyrazol-1-yl)thiazole-4-carboxylic acid] |
| < 100 nM | Cc1ccc(C#Cc2cccc(-c3nn(-c4nc(C(=O)O)cs4)c(CC4CC4)c3Cc3ccc(S(N)(=O)=O)c(F)c3)n2)s1 [Compound 231, 2-(5-(cyclopropylmethyl)-4-(3-fluoro-4-sulfamoylbenzyl)-3-(6-((5-methylthiophen-2-yl)ethynyl)pyridin-2-yl)-1H-pyrazol-1-yl)thiazole-4-carboxylic acid] |
| < 100 nM | Cc1ccc(C#Cc2cccc(-c3nn(-c4nc(C(=O)O)cs4)c(CCC4CC4)c3Cc3ccc(S(N)(=O)=O)c(F)c3)c2)o1 [Compound 232, 2-(5-(2-cyclopropylethyl)-4-(3-fluoro-4-sulfamoylbenzyl)-3-(3-((5-methylfuran-2-yl)ethynyl)phenyl)-1H-pyrazol-1-yl)thiazole-4-carboxylic acid] |
| 100 to 1000 nM | Cc1ccc(C#Cc2ccc(-c3nn(-c4nc(C(=O)O)cs4)c(CC4CC4)c3Cc3ccc(S(N)(=O)=O)c(F)c3)s2)s1 [Compound 233, 2-(5-(cyclopropylmethyl)-4-(3-fluoro-4-sulfamoylbenzyl)-3-(5-((5-methylthiophen-2-yl)ethynyl)thiophen-2-yl)-1H-pyrazol-1-yl)thiazole-4-carboxylic acid] |
| < 100 nM | Cc1cnc(C#Cc2cccc(-c3nn(-c4nc(C(=O)O)cs4)c(CCC4CC4)c3Cc3ccc(S(N)(=O)=O)c(F)c3)c2)s1 [Compound 234, 2-(5-(2-cyclopropylethyl)-4-(3-fluoro-4-sulfamoylbenzyl)-3-(3-((5-methylthiazol-2-yl)ethynyl)phenyl)-1H-pyrazol-1-yl)thiazole-4-carboxylic acid] |
| < 100 nM | Cc1ncc(C#Cc2cccc(-c3nn(-c4nc(C(=O)O)cs4)c(CCC4CC4)c3Cc3ccc(S(N)(=O)=O)c(F)c3)c2)s1 [Compound 235, 2-(5-(2-cyclopropylethyl)-4-(3-fluoro-4-sulfamoylbenzyl)-3-(3-((2-methylthiazol-5-yl)ethynyl)phenyl)-1H-pyrazol-1-yl)thiazole-4-carboxylic acid] |
| < 100 nM | Cc1nc(C#Cc2cccc(-c3nn(-c4nc(C(=O)O)cs4)c(CC4CC4)c3Cc3ccc(S(N)(=O)=O)c(F)c3)c2)cs1 [Compound 236, 2-(5-(cyclopropylmethyl)-4-(3-fluoro-4-sulfamoylbenzyl)-3-(3-((2-methylthiazol-4-yl)ethynyl)phenyl)-1H-pyrazol-1-yl)thiazole-4-carboxylic acid] |
| 100 to 1000 nM | Cc1ccc(C#Cc2csc(-c3nn(-c4nc(C(=O)O)cs4)c(CC4CC4)c3Cc3ccc(S(N)(=O)=O)c(F)c3)c2)s1 [Compound 237, 2-(5-(cyclopropylmethyl)-4-(3-fluoro-4-sulfamoylbenzyl)-3-(4-((5-methylthiophen-2-yl)ethynyl)thiophen-2-yl)-1H-pyrazol-1-yl)thiazole-4-carboxylic acid] |
| 100 to 1000 nM | Cc1cc(C#Cc2cccc(-c3nn(-c4nc(C(=O)O)cs4)c(CCC4CC4)c3Cc3ccc(S(N)(=O)=O)c(F)c3)c2)c(C)s1 [Compound 238, 2-(5-(2-cyclopropylethyl)-3-(3-((2,5-dimethylthiophen-3-yl)ethynyl)phenyl)-4-(3-fluoro-4-sulfamoylbenzyl)-1H-pyrazol-1-yl)thiazole-4-carboxylic acid] |
| 100 to 1000 nM | Cc1cc(C#Cc2cccc(-c3nn(-c4nc(C(=O)O)cs4)c(CCC4CC4)c3Cc3ccc(S(N)(=O)=O)c(F)c3)c2)cs1 [Compound 239, 2-(5-(2-cyclopropylethyl)-4-(3-fluoro-4-sulfamoylbenzyl)-3-(3-((5-methylthiophen-3-yl)ethynyl)phenyl)-1H-pyrazol-1-yl)thiazole-4-carboxylic acid] |
| < 100 nM | Cc1cc(C#Cc2cccc(-c3nn(-c4nc(C(=O)O)cs4)c(CC4CC4)c3Cc3ccc(S(N)(=O)=O)c(F)c3)c2)cs1 [Compound 240, 2-(5-(cyclopropylmethyl)-4-(3-fluoro-4-sulfamoylbenzyl)-3-(3-((5-methylthiophen-3-yl)ethynyl)phenyl)-1H-pyrazol-1-yl)thiazole-4-carboxylic acid] |
| 100 to 1000 nM | Cc1cc(C#Cc2cccc(-c3nn(-c4nc(C(=O)O)cs4)c(CC4CC4)c3Cc3ccc(S(N)(=O)=O)c(F)c3)c2)c(C)s1 [Compound 241, 2-(5-(cyclopropylmethyl)-3-(3-((2,5-dimethylthiophen-3-yl)ethynyl)phenyl)-4-(3-fluoro-4-sulfamoylbenzyl)-1H-pyrazol-1-yl)thiazole-4-carboxylic acid] |
| < 100 nM | Cc1ccc(C(=O)Cc2cccc(-c3nn(-c4nc(C(=O)O)cs4)c(CC4CC4)c3Cc3ccc(S(N)(=O)=O)c(F)c3)c2)s1 [Compound 242, 2-(5-(cyclopropylmethyl)-4-(3-fluoro-4-sulfamoylbenzyl)-3-(3-(2-(5-methylthiophen-2-yl)-2-oxoethyl)phenyl)-1H-pyrazol-1-yl)thiazole-4-carboxylic acid] |
| < 100 nM | Cc1nc(C#Cc2cccc(-c3nn(-c4nc(C(=O)O)cs4)c(CCC4CC4)c3Cc3ccc(S(N)(=O)=O)c(F)c3)c2)cs1 [Compound 243, 2-(5-(2-cyclopropylethyl)-4-(3-fluoro-4-sulfamoylbenzyl)-3-(3-((2-methylthiazol-4-yl)ethynyl)phenyl)-1H-pyrazol-1-yl)thiazole-4-carboxylic acid] |
